Consider 12 molecules from US12065436B2, “Cardiac sarcomere inhibitors” (Cytokinetics, Inc., priority 2018, dated 2024).

Structures are written as SMILES.

For orientation: IC50 means the concentration at which inhibition is half-maximal.

The target of the experiment is bovine cardiac myofibrils (full-length cardiac myosin ATPase in the native sarcomere) (Bos taurus (Bovine), UniProt Q9BE39). Nature of the experiment: Skinned bovine cardiac myofibril ATPase assay (PK/LDH-coupled). It is filed as biochemical. As to conditions: Ca2+ activating to 75% of maximal rate; for CDMF75 IC15: concentration giving 15% inhibition; for IC50: read-out: CDMF75 IC50. Summed up:
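Triton-skinned bovine left-ventricle myofibrils (1 mg/mL) in PM 12 buffer (12 mM PIPES, 2 mM MgCl2, pH 6.8) with 50 μM ATP, 0.6 mM EGTA and CaCl2 set for 50% or 75% activation. Steady-state ATPase inhibition followed by PK/LDH-coupled NADH oxidation at 340 nm.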

Chain of bovine cardiac myofibrils (full-length cardiac myosin ATPase in the native sarcomere) (Q9BE39 whole entry): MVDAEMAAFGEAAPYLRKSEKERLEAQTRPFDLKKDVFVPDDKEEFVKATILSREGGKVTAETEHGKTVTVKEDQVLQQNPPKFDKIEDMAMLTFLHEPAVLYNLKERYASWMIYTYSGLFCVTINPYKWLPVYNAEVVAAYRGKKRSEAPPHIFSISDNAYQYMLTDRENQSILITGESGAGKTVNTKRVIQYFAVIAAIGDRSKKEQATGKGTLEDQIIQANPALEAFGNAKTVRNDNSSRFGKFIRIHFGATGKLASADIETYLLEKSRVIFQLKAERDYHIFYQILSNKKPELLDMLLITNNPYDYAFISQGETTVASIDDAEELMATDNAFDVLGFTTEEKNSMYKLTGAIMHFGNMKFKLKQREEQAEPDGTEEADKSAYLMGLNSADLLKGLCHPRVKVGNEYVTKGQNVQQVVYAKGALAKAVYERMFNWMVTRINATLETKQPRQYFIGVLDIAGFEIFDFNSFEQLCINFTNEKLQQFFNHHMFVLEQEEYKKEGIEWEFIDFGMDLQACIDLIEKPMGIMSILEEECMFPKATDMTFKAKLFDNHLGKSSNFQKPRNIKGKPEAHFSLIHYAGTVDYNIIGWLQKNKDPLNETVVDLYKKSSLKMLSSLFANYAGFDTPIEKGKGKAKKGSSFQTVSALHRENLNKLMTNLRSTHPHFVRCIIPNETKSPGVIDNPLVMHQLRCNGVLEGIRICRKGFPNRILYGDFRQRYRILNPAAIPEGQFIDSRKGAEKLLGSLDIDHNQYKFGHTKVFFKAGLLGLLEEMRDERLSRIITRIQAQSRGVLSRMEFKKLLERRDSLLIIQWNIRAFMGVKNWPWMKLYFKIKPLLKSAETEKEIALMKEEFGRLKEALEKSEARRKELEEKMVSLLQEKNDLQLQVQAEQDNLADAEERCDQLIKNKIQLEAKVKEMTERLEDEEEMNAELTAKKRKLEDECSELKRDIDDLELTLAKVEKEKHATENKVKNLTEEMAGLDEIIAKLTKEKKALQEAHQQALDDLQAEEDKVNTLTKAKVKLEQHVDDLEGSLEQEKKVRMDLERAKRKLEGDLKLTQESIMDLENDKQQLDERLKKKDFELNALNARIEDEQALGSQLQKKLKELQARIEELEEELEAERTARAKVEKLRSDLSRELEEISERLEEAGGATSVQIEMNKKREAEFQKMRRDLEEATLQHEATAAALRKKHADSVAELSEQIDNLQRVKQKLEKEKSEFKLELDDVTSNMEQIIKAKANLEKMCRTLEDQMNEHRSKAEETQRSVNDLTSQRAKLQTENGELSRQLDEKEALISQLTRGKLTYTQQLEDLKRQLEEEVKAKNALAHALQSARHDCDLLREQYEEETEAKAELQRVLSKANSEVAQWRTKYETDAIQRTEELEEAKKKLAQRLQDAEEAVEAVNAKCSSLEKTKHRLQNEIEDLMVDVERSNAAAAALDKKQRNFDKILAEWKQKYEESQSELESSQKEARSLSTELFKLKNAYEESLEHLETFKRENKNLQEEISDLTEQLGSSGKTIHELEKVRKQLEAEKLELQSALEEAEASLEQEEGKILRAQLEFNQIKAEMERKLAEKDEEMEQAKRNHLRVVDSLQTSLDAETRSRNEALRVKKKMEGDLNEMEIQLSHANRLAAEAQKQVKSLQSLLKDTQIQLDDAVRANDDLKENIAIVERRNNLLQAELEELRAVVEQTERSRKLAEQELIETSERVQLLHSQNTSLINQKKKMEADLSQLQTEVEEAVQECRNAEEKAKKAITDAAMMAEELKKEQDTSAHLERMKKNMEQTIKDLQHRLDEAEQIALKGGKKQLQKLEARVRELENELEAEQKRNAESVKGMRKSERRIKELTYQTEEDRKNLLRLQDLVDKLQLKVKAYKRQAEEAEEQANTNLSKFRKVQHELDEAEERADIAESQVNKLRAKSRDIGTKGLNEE
Chain of bovine cardiac myofibrils (full-length cardiac myosin ATPase in the native sarcomere) (P85100 whole entry partner): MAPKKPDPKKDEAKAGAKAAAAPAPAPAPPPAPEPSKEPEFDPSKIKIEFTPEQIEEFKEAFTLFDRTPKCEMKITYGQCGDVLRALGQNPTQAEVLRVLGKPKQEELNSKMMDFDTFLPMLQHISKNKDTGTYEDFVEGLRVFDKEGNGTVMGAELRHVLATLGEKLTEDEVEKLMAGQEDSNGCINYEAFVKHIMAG
Chain of bovine cardiac myofibrils (full-length cardiac myosin ATPase in the native sarcomere) (Q3SZE5 whole entry partner): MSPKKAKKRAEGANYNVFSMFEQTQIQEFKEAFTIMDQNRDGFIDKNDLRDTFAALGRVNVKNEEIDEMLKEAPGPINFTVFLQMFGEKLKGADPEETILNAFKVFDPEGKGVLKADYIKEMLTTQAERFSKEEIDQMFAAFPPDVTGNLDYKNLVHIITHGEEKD

Consider `Cc1nc(C)c(C(=O)N[C@@H]2COc3cc(-c4noc(C(F)F)n4)ccc32)o1` [Compound 193, (S)-N-(6-(5-(difluoromethyl)-1,2,4-oxadiazol-3-yl)-2,3-dihydrobenzofuran-3-yl)-2,4-dimethyloxazole-5-carboxamide], for which the “CDMF75 IC15” value was 500 nM and the IC50 is 2100 nM.

On to `CCc1nc(-c2ccc3c(c2)CCC[C@H]3NC(=O)c2cnn(C)c2)no1` [Compound 517, (R)—N-(6-(5-ethyl-1,2,4-oxadiazol-3-yl)-1,2,3,4-tetrahydronaphthalen-1-yl)-1-methyl-1H-pyrazole-4-carboxamide], for which the “CDMF75 IC15” value was determined as 2200 nM and the half-inhibitory concentration (IC50) amounted to 9700 nM.

Consider `CCc1nc(-c2ccc3c(c2)CC[C@H]3NC(=O)c2cncc(C)c2)no1` [Compound 626, (R)-N-(5-(5-ethyl-1,2,4-oxadiazol-3-yl)-2,3-dihydro-1H-inden-1-yl)-5-methylnicotinamide], for which the “CDMF75 IC15” value came out at 500 nM and the half-maximal inhibitory concentration (IC50) was 1600 nM.

As for `Cc1c(C(=O)N[C@@H]2CCc3cc(-c4noc(C5CC5)n4)ccc32)cnn1C` [Compound 153, (R)-N-(5-(5-cyclopropyl-1,2,4-oxadiazol-3-yl)-2,3-dihydro-1H-inden-1-yl)-1,5-dimethyl-1H-pyrazole-4-carboxamide], the “CDMF75 IC15” value was 500 nM and the 50% inhibitory concentration (IC50) worked out at 1900 nM.

On to `Cc1cc(C(=O)N[C@@H]2COc3cc(-c4noc(C)n4)ccc32)on1` [Compound 346, (S)-3-methyl-N-(6-(5-methyl-1,2,4-oxadiazol-3-yl)-2,3-dihydrobenzofuran-3-yl)isoxazole-5-carboxamide], for which the “CDMF75 IC15” value is 900 nM and the IC50 turned out to be 3200 nM.

With `Cn1nccc1C(=O)NC1COc2cc(-c3noc(C4CC4)n3)ccc21` (stereo not drawn) [Compound 221, N-(6-(5-cyclopropyl-1,2,4-oxadiazol-3-yl)-2,3-dihydrobenzofuran-3-yl)-1-methyl-1H-pyrazole-5-carboxamide], the “CDMF75 IC15” value was found to be 600 nM and the IC50 was determined as 2000 nM.

For the molecule `Cc1nc(-c2ccc3c(c2)CCC3NC(=O)c2ccccc2)no1` (stereo not drawn) [Compound 2, N-(5-(5-methyl-1,2,4-oxadiazol-3-yl)-2,3-dihydro-1H-inden-1-yl)benzamide], the “CDMF75 IC15” value amounted to 600 nM and the IC50 came to 2000 nM.

In the case of `CCc1nc(-c2ccc3c(c2)CC[C@H]3NC(=O)c2ccc(=O)n(CC(=O)O)c2)no1` [Compound 614, (R)-2-(5-((5-(5-ethyl-1,2,4-oxadiazol-3-yl)-2,3-dihydro-1H-inden-1-yl)carbamoyl)-2-oxopyridin-1(2H)-yl)acetic acid], the “CDMF75 IC15” value was found to be 3400 nM and the half-maximal inhibitory concentration (IC50) turned out to be 14700 nM.

As to `Cc1cc(C(=O)NC2CCc3cc(-c4nnn(C)n4)ccc32)ccn1` (stereo not drawn) [Compound 148, 2-methyl-N-(5-(2-methyl-2H-tetrazol-5-yl)-2,3-dihydro-1H-inden-1-yl)isonicotinamide], the “CDMF75 IC15” value was 2900 nM and the half-maximal inhibitory concentration (IC50) was 13500 nM.

For the molecule `CCc1nc(-c2ccc3c(c2)CC[C@H]3NC(=O)c2cnn(C[C@H](C)O)c2)no1` [Compound 541, N-[(1R)-5-(5-ethyl(1,2,4-oxadiazol-3-yl))indanyl][1-((2S)-2-hydroxypropyl)pyrazol-4-yl]carboxamide], the “CDMF75 IC15” value came out at 1200 nM and the IC50 came to 5200 nM.

Turning to `CCc1nc(-c2ccc3c(c2)CC[C@H]3NC(=O)c2ccc(=O)[nH]c2)no1` [Compound 604, (R)-N-(5-(5-ethyl-1,2,4-oxadiazol-3-yl)-2,3-dihydro-1H-inden-1-yl)-6-oxo-1,6-dihydropyridine-3-carboxamide], the “CDMF75 IC15” value worked out at 300 nM and the IC50 came out at 900 nM.

Regarding `CCc1noc(-c2ccc3c(c2)CC[C@H]3NC(=O)c2cnn(C)c2)n1` [Compound 254, (R)-N-(5-(3-ethyl-1,2,4-oxadiazol-5-yl)-2,3-dihydro-1H-inden-1-yl)-1-methyl-1H-pyrazole-4-carboxamide], the “CDMF75 IC15” value amounted to 1300 nM and the IC50 came to 4900 nM.
